Assay results as given in patent publication US4767764A, “Alkoxyalkyl and alkylmercaptoalkyl substituted bridged benzofuroisoquinolines having opioid antagonist and/or appetite-controlling properties” (E. I. Du Pont de Nemours and Company, priority 1986, dated 1988).

What was measured:
[1] = tested on: PQ-induced writhing in mice; assay: animal or person; assay type: in vivo, mouse (male CF1); settings: Mus musculus, sc, read-out: ED50, antagonism of PQ-induced writhing in mice
[2] = biological target: T1, kappa opioid receptor (U-50,488H analgesia) (Mus musculus, UniProt P33534); assay: in vivo; set-up: species or system mouse (male CF1); settings: sc, read-out: ED50, antagonism of U-50,488H analgesia in PQW test (kappa antagonist potency)
T1 construct: Male CF1 mice (fasted 17-21 hours); from tissue; host or cells: live male CF1 mice (in vivo, whole animal; endogenous receptor)
T1 sequence (P33534 whole entry): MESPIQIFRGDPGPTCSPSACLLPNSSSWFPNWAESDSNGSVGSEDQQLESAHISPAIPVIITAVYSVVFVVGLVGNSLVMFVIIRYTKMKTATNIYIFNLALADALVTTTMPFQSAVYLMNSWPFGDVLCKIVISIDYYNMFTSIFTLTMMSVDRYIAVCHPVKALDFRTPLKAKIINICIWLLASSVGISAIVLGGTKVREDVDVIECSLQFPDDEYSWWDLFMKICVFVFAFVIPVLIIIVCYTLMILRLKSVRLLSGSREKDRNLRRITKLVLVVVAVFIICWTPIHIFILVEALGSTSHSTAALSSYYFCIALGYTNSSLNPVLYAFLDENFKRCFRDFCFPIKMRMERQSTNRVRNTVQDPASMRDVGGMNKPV

[3] = biological target: T2, mu opioid receptor (morphine analgesia) (Mus musculus, UniProt P42866); assay: antagonism of morphine analgesia in PQW test (mu antagonist potency); assay type: in vivo, mouse (male CF1); settings: sc, read-out: ED50, antagonism of morphine analgesia in PQW test (mu antagonist potency)
T2 construct: Male CF1 mice (fasted 17-21 hours); from tissue; host or cells: live male CF1 mice (in vivo, whole animal; endogenous receptor)
T2 sequence (P42866 whole entry): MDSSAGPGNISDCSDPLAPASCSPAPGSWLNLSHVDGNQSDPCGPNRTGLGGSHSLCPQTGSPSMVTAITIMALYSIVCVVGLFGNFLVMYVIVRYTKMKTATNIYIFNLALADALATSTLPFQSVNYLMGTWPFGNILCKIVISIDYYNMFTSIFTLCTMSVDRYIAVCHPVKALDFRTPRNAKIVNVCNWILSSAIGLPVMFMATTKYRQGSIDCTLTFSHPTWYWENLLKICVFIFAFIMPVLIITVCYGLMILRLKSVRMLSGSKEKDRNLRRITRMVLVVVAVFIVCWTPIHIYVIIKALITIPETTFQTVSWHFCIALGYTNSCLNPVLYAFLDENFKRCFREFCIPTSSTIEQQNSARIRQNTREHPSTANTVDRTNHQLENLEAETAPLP

[4] = tested on: animal models of hemorrhagic, septic, and neurogenic shock; settings: in vivo; cited from earlier work
spinal cord injury = settings: rabbit, versus WIN 44,441-3; cited from earlier work
food intake = settings: in vivo; cited from earlier work
[5] = tested on: μ (mu), κ (kappa) and δ (delta) opioid receptors; settings: established opioid antagonists; cited from earlier work
kappa receptor = settings: cited from earlier work
feeding = settings: in vivo; cited from earlier work

Q: Which ED50 [1] does the source give for `CCCN1CCC23c4cccc(O)c4OC2C2CCC3(C1)C(COC)C2` (stereo not drawn) [Example 1, 5-Methoxymethyl-3-n-propyl-1,2,3,4,5,6,7,7a-octahydro-4a,7-ethanobenzofuro[3,2-e]isoquinolin-9-ol] here?
A: > 81 mg/kg

Q: And the ED50 [2]?
A: 0.004 mg/kg

Q: What about the ED50 [3] of the same compound?
A: 0.014 mg/kg

Q: With `CCCN1CCC23c4cccc(O)c4OC2C2CCC3(C1)C(COCC)C2` (stereo not drawn) [Example 2, 5-Ethoxymethyl-3-n-propyl-1,2,3,4,5,6,7,7a-octahydro-4a,7-ethanobenzofuro[3,2-e]isoquinolin-9-ol] as the compound, how does the ED50 [1] read?
A: > 81 mg/kg

Q: And the ED50 [2]?
A: 0.012 mg/kg

Q: What about the ED50 [3] of the same compound?
A: 0.024 mg/kg

Q: With `CCCOCC1CC2CCC13CN(CCC)CCC31c3cccc(O)c3OC21` (stereo not drawn) [Example 3, 5-(n-Propoxymethyl)-3-n-propyl-1,2,3,4,5,6,7,7a-octahydro-4a,7-ethanobenzofuro[3,2-e]isoquinolin-9-ol] as the compound, how does the ED50 [1] read?
A: > 81 mg/kg

Q: What about the ED50 [2] of the same compound?
A: 0.025 mg/kg

Q: And the ED50 [3]?
A: 0.06 mg/kg

Q: For `CCCOCC1CC2C=CC13CN(CCC)CCC31c3cccc(O)c3OC21` (stereo not drawn) [Example 4, 5-(n-propoxymethyl)-3-n-propyl-1,2,3,4,5,6,7,7a-octahydro-4a,7-ethenobenzofuro[3,2-e]isoquinolin-9-ol], which ED50 [1] is on record?
A: > 81 mg/kg

Q: And the ED50 [2]?
A: 0.05 mg/kg

Q: And the ED50 [3]?
A: 0.19 mg/kg

Q: For `CCCN1CCC23c4cccc(O)c4OC2C2CCC3(C1)C(CSC)C2` (stereo not drawn) [Example 5, 5-methylthiomethyl-3-n-propyl-1,2,3,4,5,6,7,7a-octahydro-4a,7-ethanobenzofuro[3,2-e]isoquinolin-9-ol], which ED50 [1] is on record?
A: > 81 mg/kg

Q: And the ED50 [2]?
A: 0.063 mg/kg

Q: And the ED50 [3]?
A: 0.1 mg/kg

Q: For `COCC1CC2CCC13CN(CC1CC1)CCC31c3cccc(O)c3OC21` (stereo not drawn) [Example 6, 3-Cyclopropylmethyl-5-methoxymethyl-1,2,3,4,5,6,7,7a-octahydro-4a,7-ethanobenzofuro[3,2-e]isoquinolin-9-ol], which ED50 [1] is on record?
A: > 81 mg/kg

Q: What about the ED50 [2] of the same compound?
A: 0.007 mg/kg

Q: And the ED50 [3]?
A: 0.008 mg/kg

Q: Which results are given for `Oc1cccc2c1OC1C3CCC4(CN(CC5CC5)CCC214)C(COCCCc1ccccc1)C3` (stereo not drawn) [Example 7, 3-cyclopropylmethyl-5-(3-phenyl-n-propoxymethyl)-1,2,3,4,5,6,7,7a-octahydro-4a,7-ethanolbenzofuro[3,2-e]isoquinolin-9-ol]?
A: ED50 [1]: > 81 mg/kg; ED50 [2]: 0.24 mg/kg; ED50 [3]: 0.29 mg/kg

Q: With `CCC1C2Cc3ccc(O)cc3C1(CC)CCN2Cc1ccoc1` (stereo not drawn) [MR 2266, reference compound] as the compound, how does the ED50 [1] read?
A: > 81 mg/kg

Q: What about the ED50 [2] of the same compound?
A: 0.115 mg/kg

Q: And the ED50 [3]?
A: 0.109 mg/kg

Q: For `C=CCN1CC[C@]23c4c5ccc(O)c4O[C@H]2C(=O)CC[C@@]3(O)[C@H]1C5` [Naloxone, naloxone], which “effective doses in shock models versus mu mediated effects” value [4] is on record?
A: several orders of magnitude higher than doses useful in reversing mu mediated effects

Q: And the “improvement of hemodynamic parameters in shock models” value [4]?
A: improve hemodynamic parameters in a variety of animal models of hemorrhagic, septic, and neurogenic shock

Q: What about the ED50 [1] of the same compound?
A: > 81 mg/kg

Q: And the “effectiveness in spinal stroke model” value (spinal cord injury)?
A: less effective than WIN 44,441-3

Q: And the “decrease of food intake” value (food intake)?
A: decrease food intake in several animal species

Q: And the “effective doses for food intake versus mu mediated effects” value (food intake)?
A: much larger than those useful in reversing mu mediated effects

Q: Which results are given for `O=C1CC[C@@]2(O)[C@H]3Cc4ccc(O)c5c4[C@@]2(CCN3CC2CC2)[C@H]1O5` [Naltrexone, naltrexone]?
A: ED50 [1]: > 81 mg/kg; opioid receptor binding in words [5]: bind to all three types of receptors, with greatest affinity for the mu receptor; decrease of food intake (food intake): decrease food intake in several animal species; effective doses for food intake versus mu mediated effects (food intake): much larger than those useful in reversing mu mediated effects

Q: For `CN1CC[C@]2(C)c3cc(O)ccc3C[C@H]1C2(C)CCC(=O)CCC1CCCC1.CS(=O)(=O)O` (stereo partly drawn) [WIN 44,441-3], which “kappa receptor activity/selectivity in words” value (kappa receptor) is on record?
A: enhanced activity at the kappa receptor

Q: Which stimulation of feeding (feeding) does the source give for `CC[C@]12CCN(CC3CC3)[C@H](C(=O)c3ccc(O)cc31)[C@@H]2C` [ethylketocyclazocine] here?
A: more potent stimulators of feeding than the mu agonist morphine
